Measurements as given in publication PMC9611758, “Bioactive Platinum(IV) Complexes Incorporating Halogenated Phenylacetates” (Molecules, 2022).
“Also recorded” adds a separate entry of the source. Where two headings read alike, the source gives them in different places.

Legend:
HT29 colon [1] = system: HT29 colon; set-up: method as in PMID 36142383; conditions: MTT assay, 72 h; cited from earlier work
U87 glioblastoma [2] = system: U87 glioblastoma; set-up: method as in PMID 36142383; conditions: MTT assay, 72 h; cited from earlier work
MCF-7 breast [3] = system: MCF-7 breast; set-up: method as in PMID 36142383; conditions: MTT assay, 72 h; cited from earlier work
A2780 ovarian [4] = system: A2780 ovarian; set-up: method as in PMID 36142383; conditions: MTT assay, 72 h; cited from earlier work
H460 lung [5] = system: H460 lung; set-up: method as in PMID 36142383; conditions: MTT assay, 72 h; cited from earlier work
A431 skin [6] = system: A431 skin; set-up: method as in PMID 36142383; conditions: MTT assay, 72 h; cited from earlier work
Du145 prostate [7] = system: Du145 prostate; set-up: method as in PMID 36142383; conditions: MTT assay, 72 h; cited from earlier work
BE2-C neuroblastoma [8] = system: BE2-C neuroblastoma; set-up: method as in PMID 36142383; conditions: MTT assay, 72 h; cited from earlier work
SJ-G2 glioblastoma [9] = system: SJ-G2 glioblastoma; set-up: method as in PMID 36142383; conditions: MTT assay, 72 h; cited from earlier work
MIA pancreas [10] = system: MIA pancreas; set-up: method as in PMID 36142383; conditions: MTT assay, 72 h; cited from earlier work
[11] = system: ADDP-resistant ovarian variant; set-up: method as in PMID 36142383; conditions: MTT assay, 72 h; cited from earlier work
HT29 colon [12] = assay: MTT growth inhibition assay, HT29; format: cell-based, human; conditions: MTT assay, 72 h
U87 glioblastoma [13] = assay: MTT growth inhibition assay, U87; format: cell-based, human; conditions: 72 h
MCF-7 breast [14] = assay: MTT growth inhibition assay, MCF-7; format: cell-based, human; conditions: MTT assay, 72 h
A2780 ovarian [15] = assay: MTT growth inhibition assay, A2780; format: cell-based, human; conditions: 72 h
H460 lung [16] = assay: MTT growth inhibition assay, H460; format: cell-based, human; conditions: 72 h
A431 skin [17] = assay: MTT growth inhibition assay, A431; format: cell-based, human; conditions: 72 h
Du145 prostate [18] = assay: MTT growth inhibition assay, Du145; format: cell-based, human; conditions: for GI50: MTT assay, 72 h
BE2-C neuroblastoma [19] = assay: MTT growth inhibition assay, BE2-C; format: cell-based, human; conditions: 72 h
SJ-G2 glioblastoma [20] = assay: MTT growth inhibition assay, SJ-G2; format: cell-based, human; conditions: 72 h
MIA pancreas [21] = assay: MTT growth inhibition assay, MIA; format: cell-based, human; conditions: 72 h
[22] = system: non-tumour derived MCF10A breast line; assay: MTT growth inhibition assay, MCF10A; format: cell-based, human; conditions: 72 h
[23] = system: ADDP-resistant ovarian variant; assay: MTT growth inhibition assay, ADDP; format: cell-based, human; conditions: for GI50: MTT assay, 72 h
panel of cell lines = assay: MTT growth inhibition assay, whole panel of cell lines; format: cell-based, human; conditions: average over the cell lines tested, MTT assay, 72 h
[24] = Lipophilicity by HPLC (log kw); format: physicochemical; conditions: for log kw: chromatographic lipophilicity index, extrapolated to 100% d.i.H2O; for log kw (y-intercept of log k versus [CH3CN] % plot, Figure S80): linear fit
Source text: For lipophilicity measurements, HPLC was utilised instead of the traditional shake-flask method, as described previously. Recent studies have also reported the efficiency of HPLC in measuring the lipophilicity of compounds [79, 80]. Each complex was eluted under several isocratic ratios. A standard curve was generated to calculate the log value of the capacity factor (log k) according to Equation (1). Following Equation (2), the percentage of organic solvent (CH3CN) in the mobile phase from each isocratic run was plotted against log kw (Figure S80). Log kw is the chromatographic lipophilicity index or measure of lipophilicity of the complex, so a higher value corresponds to greater lipophilicity. Because the selected axial ligands in this study contain F, Cl, Br, and I, it was only appropriate to determine the influence of the halogens on the overall lipophilicity of the platinum(IV) complexes. […] Conversely, the least lipophilic complex was the phen derivative containing 4-FPA, 3, with a log kw of 0.25. Furthermore, for the phen derivatives, the order of increasing lipophilicity was 3 > 1 > 5 > 7, which corresponds to the order of increasing size of the halogens, F > Cl > Br > I. This pattern was also observed with the 5,6-Me2phen derivatives (4 > 2 > 6 > 8), thereby confirming that the halogens increased the order of lipophilicity accordingly based on their size.
For lipophilicity measurements, analytical HPLC was utilised. Elution profiles were acquired on an Agilent (Melbourne, VIC, Australia) Technologies 1260 Infinity instrument equipped with a Phenomenex Onyx^TM Monolithic C18-reverse phase column (100 × 4.6 mm, 5 µm pore size) (Sydney, NSW, Australia). The mobile phase consisted of solvents, A (0.06% TFA in d.i.H2O) and B (0.06% TFA in CH3CN/d.i.H2O (90:10)). Potassium iodide was used as an external dead volume marker to determine the dead time of the column. Retention times (TR) were measured at varying isocratic ratios ranging from 30 to 36% of solvent B at 1 mL·min^−1 mL. An injection volume of 10 µL was utilised. Capacity factors were determined according to Equation (1):(1) k=(TR−T0)/T0 where k is the capacity factor, TR is the retention time of the analyte, and T0 represents the dead time. A minimum of four different mobile compositions were used for each complex to calculate k. A linear plot was generated of log k against the concentration of CH3CN in the mobile phase to determine the value of log kw expressed by Equation (2):(2) logk=Sφ+logkw where S is the slope, φ is the concentration of the CH3CN in the mobile phase, and log kw represents the capacity factor of the complex in 100% d.i.H2O. Extrapolation of this linear plot to the y-intercept indicates the log kw value.

[25] = Reduction experiments with AsA by 1H-NMR and 1D-195Pt-NMR; format: physicochemical; conditions: D2O, 37 °C; for T50% (approximate time at which 50% reduction occurs): 10 mM PBS (~7.4 pH), 1H-NMR; for extent of reduction 1 h after the final 1H-NMR experiment (1D-195Pt-NMR): PBS, regions −2800 and 400 ppm
Source text: Platinum(IV) complexes are reduced to their platinum(II) precursors by intracellular biological reducing agents such as AsA or GSH in tumour cells. However, the precise mechanism by which reduction occurs is not fully understood. In this paper, reduction reaction experiments were undertaken on the synthesised platinum(IV) complexes, 1–8, with the aid of ^1H-NMR and 1D-^195Pt-NMR spectroscopy. The method used for the reduction reaction experiments was adapted from the literature without modifications. A total of 10 mM PBS (~7.4 pH) was selected as media, and AsA was used as the biological reducing agent to investigate the reduction property of 1–8. Prior to the reduction reaction experiments, a control was prepared where each metal complex was dissolved with PBS in D2O. 1D-^195Pt-NMR was measured within the regions of −2800 and 400 ppm (30 min per region), at 37 °C. This was undertaken to confirm that the PBS would not interfere with the reduction process of the metal complexes. […] The approximate time points for the studied complexes at which an estimated 50% reduction had occurred, in the presence of AsA, as represented by T50%, are summarised in Table 6.
The reduction properties of 1–8 were monitored using ^1H-NMR and 1D-^195Pt-NMR spectroscopy on a 400 MHz Bruker (Melbourne, VIC, Australia) Avance Spectrometer. A sequence of ^1H-NMR experiments was carried out for 1 h at 37 °C, followed by 1D-^195Pt-NMR within the regions of −2800 and 400 ppm. An amount of 10 mM PBS (~7.4 pH) was transferred to a vial and reduced to dryness through rotary evaporation. AsA (~1 mg) was combined with the metal complex (~5 mg) and transferred to the vial containing the dried PBS. A total of 600 µL of D2O was then added to the vial to dissolve the complex, AsA, and the PBS together.

HT29 colon cells = assay: ROS detection assay (DCFH-DA); format: cell-based, human; conditions: HT29 colon cells, treated at GI50 concentration (TBHP positive control 20 μM)
Source text: Although ROS is required for cancer cell function and progression, it can induce programmed cell death or apoptosis. […] In this study, we report the ROS activity of the studied platinum(IV) complexes, 1–8, together with the individual axial ligands (4-CPA, 4-FPA, 4-BPA, and 4-IPA) in the human cancer cell line, HT29 colon (Figure 19, Table 8, and Figure S95). The ROS potential of their platinum(II) and platinum(IV) precursors in the same cell line is also presented for comparison purposes (Table 8). […] HT29 colon cells were stained by DCFH-DA and then treated with the complexes at each specific GI50 concentration. Upon ROS production, the DCFH-DA produced dichlorodihydrofluorescein, a fluorescent product. The measured fluorescence was, therefore, proportional to the produced ROS.
To investigate the presence of ROS in treated cells, a DCFDA/H2DCFDA-cellular ROS Assay Kit (Abcam, Cambridge, MA, USA) was used, as previously described. A total of 25,000 cells/mL of HT29 cells in DMEM were seeded in 96-well plates. Cells were washed with 1X kit buffer, and then stained with 25 μM 2′,7′-dichlorofluorescein diacetate (DCFH-DA) and incubated for 45 min. DCFH-DA was then removed, and cells were then re-washed with 1X kit buffer, after which phenol red free media was added. Cells were then treated with a GI50 drug concentration for each complex. The plates were directly scanned to measure fluorescence (relative fluorescence units (RFU)) at different time points using the Glo-Max®-Multimode microplate reader (Promega Corporation, Alexandra, VIC, Australia) at an excitation/emission of 485/535 nm. To generate the positive control (20 μM tert-butyl hydroperoxide (TBHP)), cells were washed with 1X kit buffer, and stained with DCFDA (25 μM) for 45 min; this was removed and TBHP was added in phenol red free media, and the resulting solution was scanned as described above.

[26] = Du145 prostate, ratio of GI50 values

Compound | GI50 (HT29 colon [12]) | GI50 (U87 glioblastoma [13]) | GI50 (MCF-7 breast [14]) | GI50 (A2780 ovarian [15]) | GI50 (H460 lung [16]) | GI50 (A431 skin [17]) | GI50 (Du145 prostate [18]) | GI50 (BE2-C neuroblastoma [19]) | GI50 (SJ-G2 glioblastoma [20]) | GI50 (MIA pancreas [21]) | GI50 [22] | GI50 [23] | GI50 (panel of cell lines) | log kw [24] | log kw (y-intercept of log k versus [CH3CN] % plot, Figure S80) [24] | T50% (approximate time at which 50% reduction occurs) [25] | extent of reduction 1 h after the final 1H-NMR experiment (1D-195Pt-NMR) [25] | ROS production 24 h (HT29 colon cells) | ROS production 48 h (HT29 colon cells) | ROS production 72 h (HT29 colon cells) | further results
O=C1[O][Pt]2([NH][C@@H]3CCCC[C@H]3[NH]2)[O]C1=O (relative stereo) [Oxaliplatin, trans-L-(1R,2R-diaminocyclohexane) oxalatoplatinum(II)] |  |  |  |  |  |  |  |  |  |  |  |  |  |  |  |  |  |  |  |  | GI50 (HT29 colon [1]): 900 ± 200 nM; GI50 (U87 glioblastoma [2]): 1800 ± 200 nM; GI50 (MCF-7 breast [3]): 500 ± 100 nM; GI50 (A2780 ovarian [4]): 160 ± 100 nM; GI50 (H460 lung [5]): 1600 ± 100 nM; GI50 (A431 skin [6]): 4100 ± 500 nM; GI50 (Du145 prostate [7]): 2900 ± 400 nM; GI50 (BE2-C neuroblastoma [8]): 900 ± 200 nM; GI50 (SJ-G2 glioblastoma [9]): 3000 ± 1200 nM; GI50 (MIA pancreas [10]): 900 ± 200 nM; GI50 [11]: 800 ± 100 nM
Cc1c(C)c2c3c4c1=CC=C[N]4[Pt+2]([OH])([O]C(=O)Cc1ccc(Br)cc1)[N]3C=CC=2.N[C@H]1CCCC[C@@H]1N [Complex 6, [Pt^IV(5,6-Me2phen)(SS-DACH)(4-BPA)(OH)]^2+] | 7 ± 2 nM | 35 ± 5 nM | 21 ± 5 nM | 20 ± 3 nM | 10 ± 2 nM | 19 ± 0.9 nM | 1 ± 0.6 nM | 100 ± 20 nM | 23 ± 5 nM | 7 ± 2 nM | 10 ± 2 nM | 6 ± 2 nM | 22 ± 4 nM | 1.07 | 1.0701 | 30 min | partial reduction; also recorded: traces of platinum(IV) species were still observed | 496 ± 14 RFU | 598 ± 14 RFU | 643 ± 14 RFU | fold more potent than 56MESS (Du145 prostate [18]; [26]): 4.6 fold; fold more potent than cisplatin (Du145 prostate [18]; [26]): 1200 fold; fold more potent than cisplatin ([23]; ADDP-resistant ovarian variant, ratio of GI50 values): ~4700 fold
N[C@H]1CCCC[C@@H]1N.O=C(Cc1ccc(I)cc1)[O][Pt+2]1([OH])[N]2C=CC=c3ccc4c(c32)[N]1C=CC=4 [Complex 7, [Pt^IV(phen)(SS-DACH)(4-IPA)(OH)]^2+] | 220 ± 33 nM | 1010 ± 95 nM | 490 ± 134 nM | 280 ± 42 nM | 380 ± 59 nM | 500 ± 180 nM | 110 ± 25 nM | 680 ± 38 nM | 590 ± 23 nM | 360 ± 40 nM | 280 ± 30 nM | 280 ± 24 nM | 432 ± 60 nM | 0.90 | 0.895 | 30 min | partial reduction; also recorded: traces of platinum(IV) species were still observed | 211 ± 9.1 RFU | 281 ± 12 RFU | 322 ± 17 RFU | 
Cc1c(C)c2c3c4c1=CC=C[N]4[Pt+2]([OH])([O]C(=O)Cc1ccc(I)cc1)[N]3C=CC=2.N[C@H]1CCCC[C@@H]1N [Complex 8, [Pt^IV(5,6-Me2phen)(SS-DACH)(4-IPA)(OH)]^2+] | 178 ± 31 nM | 900 ± 58 nM | 420 ± 62 nM | 260 ± 45 nM | 390 ± 33 nM | 430 ± 160 nM | 100 ± 21 nM | 650 ± 81 nM | 520 ± 29 nM | 300 ± 55 nM | 260 ± 22 nM | 230 ± 15 nM | 387 ± 50 nM | 1.19 | 1.1909 | 5 to 10 min | complete reduction | 345 ± 19.3 RFU | 406 ± 14 RFU | 466 ± 13 RFU | 
